Measurements taken from PMC12684391, “Mechanistic insights into the monotherapy and combination potential of FEN1 inhibition in cancer therapy” (Nucleic Acids Research, 2025).

How the values were obtained:
[1] = test system: DLD-1 cells; assay: Cell viability assay (AlamarBlue), 7 days; type: cell-based; settings: Homo sapiens, 168 h, DLD-1 wild-type, N = 3
Protocol: Cells were seeded in 96-well plates and treated the day after seeding with a serial dilution of compounds in technical duplicates. After 7 days, viability was analyzed using the AlamarBlue reagent (BioRad). AlamarBlue was added in an amount equal to 10% of the volume in the well and after a 4–6 h incubation viability was determined by fluorescence analysis using a standard plate reader. Fluorescence was normalized to vehicle treated control for each cell line, and data were fitted in Genedata Screener to generate compound sensitivity curves and determine IC50 or EC50 (half maximal inhibitory/effective concentration) values as indicated.

[2] = test system: MDA-MB-436 cells; assay: Colony formation assay; type: cell-based
Protocol: Exponentially growing DLD-1, DLD-1 BRCA2^KO, SUM149PT, and MDA-MB-436 were seeded on 24-well plates at densities of 100, 400, 500, or 650 cells/well, respectively. Cells were treated with a serial dilution of FEN1 inhibitor and incubated for 11 days (DLD-1 and SUM149PT) or 14 days (DLD-1 BRCA2^KO and MDA-MB-436). Colonies were washed with PBS, fixed with 70% ethanol, and stained with 1% crystal violet solution (Sigma–Aldrich). Excess crystal violet solution was washed off using tap water and images were acquired using a GelCount Scanner (Oxford Optronix). Dye was solubilized with 10% acetic acid (VWR) and absorbance at 595 nm measured using a CLARIOstar plate reader (BMG LABTECH Ltd.). Raw absorbance data for each cell line were normalized to DMSO treatment. Data were fitted with a nonlinear regression curve (four parameters) to determine EC50 (half maximal inhibitory concentration) values.

[3] = test system: DLD-1, DLD-1 BRCA2KO, SUM149PT, MDA-MB-436 cells; assay: Cell cycle analysis by immunofluorescence (PCNA/DAPI); type: cell-based
Protocol: Cells were seeded at a density of 10 000 cells per well in 100 μl of media in collagen-coated 96-well plates (Revvity, #6055700). Twenty-four hours after seeding, cells were treated with the indicated doses of MSC2798778, MSC2798781, or DMSO (Apollo Scientific, BID1200) using a D300e digital dispenser (Tecan) for 24 h. Cells were washed with PBS and fixed in 4% PFA (ChemCruz, sc-281692) for 10 min at room temperature.
For immunofluorescence staining, cells were washed with PBS then blocked and permeabilized with PBS containing 0.5% BSA and 0.5% Triton X-100 (blocking buffer) for 45 min at room temperature. Cells were then stained with the indicated markers by incubation with primary antibodies (Supplementary Table S5) diluted in the blocking buffer, overnight at 4°C. […]
• Foci were quantified by setting up a contrast threshold higher than the background signal. • pKAP1 positive cells were selected using a mean intensity threshold. • Cell cycle analysis was performed by defining gates on a bivariate plot of DAPI total nuclear intensity and PCNA mean nuclear intensity. PCNA positive cells were scored as cells in S-phase. G1 and G2/M cells were scored as PCNA negative cells with differential DNA content. • PARylation and replication levels were quantified by measuring the mean nuclear fluorescence intensity, in PCNA positive cells, of poly/mono-ADP ribosylation and EdU, respectively.

[4] = biological target: T1, FEN1 (1-380) FL-6His (Homo sapiens, UniProt P39748); assay: Differential scanning fluorimetry; type: binding; settings: compound 100 µM
T1 construct: FEN1(1-380)-6His was immobilized on a CM5 chip; made in house; host or cells: Escherichia coli
T1 sequence (P39748 whole entry): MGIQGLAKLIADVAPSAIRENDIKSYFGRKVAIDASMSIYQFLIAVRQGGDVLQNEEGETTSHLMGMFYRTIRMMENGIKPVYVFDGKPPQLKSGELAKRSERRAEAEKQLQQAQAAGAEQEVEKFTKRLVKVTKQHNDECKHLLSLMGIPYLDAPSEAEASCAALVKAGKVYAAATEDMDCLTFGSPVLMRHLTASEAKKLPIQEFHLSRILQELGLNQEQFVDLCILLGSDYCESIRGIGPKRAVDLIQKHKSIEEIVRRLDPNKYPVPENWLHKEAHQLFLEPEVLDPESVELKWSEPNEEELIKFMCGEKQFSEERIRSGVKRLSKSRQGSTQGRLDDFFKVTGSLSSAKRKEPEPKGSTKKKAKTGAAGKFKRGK
Protocol: A volume of 100 nl of each compound at stock concentration of 10 mM was dispensed into a 384-well skirted PCR Plate (MicroAmp™ Optical plate) using a D300e digital dispenser (Tecan). Wells were normalized such that each contained 1% (v/v) DMSO and final compound concentration of 100 µM.
FEN1 (1-380) FL-6His protein (1.25×) and protein 5× thermal shift dye (Thermo Fisher Scientific) were prepared separately in freshly prepared differential scanning fluorimetry (DSF) assay buffer (20 mM Tris–HCl pH 7.5, 100 mM potassium chloride, 5 mM magnesium chloride, and 1 mM dithiothreitol). Eight microliters of 1.25× Fen1 (10 µM) was added to the appropriate well, plate sealed with aluminium sealing film (Axygen), and centrifuged at 500 × g for 1 min before incubating for 30 min at 4°C. After the incubation period, the plate was centrifuged again at 500 × g for 1 min and 2 µl of 5× protein thermal shift dye was added. […] Fluorescence was measured using a Quantstudio pro7.0 qPCR machine (Thermo Fisher Scientific) using internal optical ×1 filter (470 ± 15 nm) for excitation and m3 filter (586 ± 10 nm) for emission.
Each experiment was run in quadruplicates and melting temperatures (Tm) calculated as the inflection point of the derivative function using the protein thermal shift software (Thermo Fisher Scientific). DeltaTm was calculated using the Tm of protein with 1% DMSO as reference.

[5] = test system: HCT-116, NCI-H460, SUM149PT, MDA-MB-436 cells; assay: Combination viability assay (CTG, Bliss synergy); type: cell-based; settings: control in place of MSC778
Protocol: For combination analysis, cells were seeded in 70 μl of media in 384-well plates pre-dosed with compounds (5-point dose–response matrix) with a D300e digital dispenser (Tecan). Cell proliferation was determined after 7 days using CTG. Analysis was performed with Genedata Screener (Compound Synergy Extension) to determine Synergy scores (Bliss model), using a formulation whereby the Blissexcess is a continuous value and values higher than 2 are usually considered synergistic, and values between 0 and 2 are usually considered additive.

Row | Compound | EC50 [1] | EC50 ([2]; Homo sapiens, 336 h, MDA-MB-436, 14 days, read-out: Colony survival EC50) | Enhancement in sensitivity in colony survival versus 7-day viability assay ([2]; MDA-MB-436) | Cell cycle effect ([3]; 24 h treatment, all four cell lines) | Thermal stabilization of FEN1 (DSF) [4] | Combination effects on viability with partner DDR inhibitors [5] | Cell cycle effect ([3]; 3 µM, HRD panel and EWS panel (U-2 OS, RD-ES, MHH-ES-1))
1 | C[C@H](Oc1nn2c(c(O)c1=O)C(=O)N1CCOC[C@@H]1C2)c1ccc2ccc(Cl)cc2c1 [MSC778] | 2300 nM | 65 nM | 10 fold | titratable S-phase accumulation | thermally stabilized FEN1 |  | 
2 | C[C@@H](Oc1nn2c(c(O)c1=O)C(=O)N1CCOC[C@@H]1C2)c1ccc2ccc(Cl)cc2c1 [MSC781] |  |  |  |  |  | not observed | not perturbed
